{
  "source": "patent US9809623B2",
  "about": "“α4β7 peptide monomer and dimer antagonists” (Protagonist Therapeutics, Inc., priority 2014, dated 2017)",
  "key": {"[1]": {"target": "α4β1 (Homo sapiens, UniProt P05556+P13612)", "sequence (P13612 34-1032)": "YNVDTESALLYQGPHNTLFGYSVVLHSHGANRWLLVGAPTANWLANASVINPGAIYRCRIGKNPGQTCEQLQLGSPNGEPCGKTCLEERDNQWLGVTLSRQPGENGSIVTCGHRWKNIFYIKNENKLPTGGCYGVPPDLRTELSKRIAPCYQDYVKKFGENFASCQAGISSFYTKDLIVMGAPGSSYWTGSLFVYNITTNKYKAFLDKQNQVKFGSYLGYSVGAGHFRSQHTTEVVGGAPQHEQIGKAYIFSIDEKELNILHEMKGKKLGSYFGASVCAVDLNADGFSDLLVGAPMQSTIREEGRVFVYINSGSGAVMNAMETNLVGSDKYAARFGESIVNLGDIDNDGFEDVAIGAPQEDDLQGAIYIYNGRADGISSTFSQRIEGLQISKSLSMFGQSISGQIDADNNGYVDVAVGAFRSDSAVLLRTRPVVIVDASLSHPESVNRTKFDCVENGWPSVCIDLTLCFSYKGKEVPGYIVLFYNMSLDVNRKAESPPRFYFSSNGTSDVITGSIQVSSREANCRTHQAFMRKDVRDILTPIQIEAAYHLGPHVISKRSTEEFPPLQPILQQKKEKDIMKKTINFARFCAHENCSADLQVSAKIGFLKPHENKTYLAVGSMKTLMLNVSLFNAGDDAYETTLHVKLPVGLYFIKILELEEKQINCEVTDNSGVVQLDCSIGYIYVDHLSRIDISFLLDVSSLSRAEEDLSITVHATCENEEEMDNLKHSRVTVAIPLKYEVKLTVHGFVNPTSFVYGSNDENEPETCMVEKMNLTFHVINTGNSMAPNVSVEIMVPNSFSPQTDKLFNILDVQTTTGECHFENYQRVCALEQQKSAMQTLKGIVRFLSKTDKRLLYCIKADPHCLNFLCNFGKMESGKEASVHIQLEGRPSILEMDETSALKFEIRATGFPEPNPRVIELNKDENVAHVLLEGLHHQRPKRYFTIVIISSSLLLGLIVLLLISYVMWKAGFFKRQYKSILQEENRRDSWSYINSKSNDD", "sequence (P05556 21-798)": "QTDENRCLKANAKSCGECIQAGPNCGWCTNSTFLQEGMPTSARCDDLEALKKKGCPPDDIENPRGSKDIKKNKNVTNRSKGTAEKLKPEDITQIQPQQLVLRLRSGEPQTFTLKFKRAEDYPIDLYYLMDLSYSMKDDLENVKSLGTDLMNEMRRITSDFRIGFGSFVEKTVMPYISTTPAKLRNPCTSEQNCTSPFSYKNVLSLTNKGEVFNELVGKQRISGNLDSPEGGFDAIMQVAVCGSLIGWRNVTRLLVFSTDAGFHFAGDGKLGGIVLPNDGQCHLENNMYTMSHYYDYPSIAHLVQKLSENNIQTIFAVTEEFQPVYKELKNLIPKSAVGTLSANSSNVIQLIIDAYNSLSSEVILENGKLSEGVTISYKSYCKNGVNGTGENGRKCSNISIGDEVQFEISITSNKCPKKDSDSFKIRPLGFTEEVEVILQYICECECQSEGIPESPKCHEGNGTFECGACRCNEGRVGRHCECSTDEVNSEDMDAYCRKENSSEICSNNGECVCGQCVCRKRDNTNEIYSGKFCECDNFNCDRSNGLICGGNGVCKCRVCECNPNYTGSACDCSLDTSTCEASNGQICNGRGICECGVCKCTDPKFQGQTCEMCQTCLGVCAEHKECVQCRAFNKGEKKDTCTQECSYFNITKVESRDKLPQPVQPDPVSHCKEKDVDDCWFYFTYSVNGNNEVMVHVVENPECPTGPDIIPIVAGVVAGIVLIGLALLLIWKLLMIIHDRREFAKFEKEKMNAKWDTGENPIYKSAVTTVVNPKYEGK", "assay": "PBMC Memory T Cell Adhesion Assay, adhesion to VCAM-1", "format": "cell-based", "details": "memory T cells isolated from human PBMC donors; read-out: IC50 (nM), memory T cells, Integrin α4β1, Ligand VCAM-1", "procedure": "Fresh CD4+/CD45RO+ memory T cells were isolated from human peripheral blood mononuclear cell (PBMC) donors by Aragen Bioscience Inc. (Morgan Hill, Calif.). The assay plate was prepared using IgG Fc capture antibody (donkey anti human) immobilized at 500 ng/well in 50 mM sodium bicarbonate buffer, pH 9.5, ON, 4C onto a Greiner Fluotrac plate (100 ul per well). The plate was rinsed two time with Blocking Buffer (25 mM Tris HCl, pH7.5, 150 mM NaCl, 1.5% BSA, 0.05% Tween), and blocked with Blocking Buffer for 2 hours at 37 C or 5 hours at RT using 200 ul per well. The Blocking Buffer was removed and either MAdCAM-1 or VCAM-1 at 400 ng/well in Blocking Buffer was added and the plate incubated overnight at 4C (100 ul per well). The plate was washed two times with Blocking Buffer, and rinsed once with 200 ul Binding Media (DMEM phenol red free, 10 mM HEPES, 1×Na pyruvate, 1× Glutamine, and supplemented with 1 mM MnCl2 prior to use). To prepare cells, approximately 25 million CD4+/CD45RO+ memory T cells were counted by trypan blue exclusion using a haemocytometer to determine viability and cell count. […] Fluorescence intensity was measured using a Molecular Devices Gemini EM Fluorescent Plate Reader (Ex 485/Em530, Bottom Read, Reading Sensitivity=20). IC50 curves are generated using Graph Pad Prism and the curves analyzed using analyzed using a non-linear regression (four parameters) algorithm. […]"}, "[2]": {"target": "α4β7 integrin (Homo sapiens, UniProt P13612+P26010)", "sequence (P13612 34-977 limits assumed)": "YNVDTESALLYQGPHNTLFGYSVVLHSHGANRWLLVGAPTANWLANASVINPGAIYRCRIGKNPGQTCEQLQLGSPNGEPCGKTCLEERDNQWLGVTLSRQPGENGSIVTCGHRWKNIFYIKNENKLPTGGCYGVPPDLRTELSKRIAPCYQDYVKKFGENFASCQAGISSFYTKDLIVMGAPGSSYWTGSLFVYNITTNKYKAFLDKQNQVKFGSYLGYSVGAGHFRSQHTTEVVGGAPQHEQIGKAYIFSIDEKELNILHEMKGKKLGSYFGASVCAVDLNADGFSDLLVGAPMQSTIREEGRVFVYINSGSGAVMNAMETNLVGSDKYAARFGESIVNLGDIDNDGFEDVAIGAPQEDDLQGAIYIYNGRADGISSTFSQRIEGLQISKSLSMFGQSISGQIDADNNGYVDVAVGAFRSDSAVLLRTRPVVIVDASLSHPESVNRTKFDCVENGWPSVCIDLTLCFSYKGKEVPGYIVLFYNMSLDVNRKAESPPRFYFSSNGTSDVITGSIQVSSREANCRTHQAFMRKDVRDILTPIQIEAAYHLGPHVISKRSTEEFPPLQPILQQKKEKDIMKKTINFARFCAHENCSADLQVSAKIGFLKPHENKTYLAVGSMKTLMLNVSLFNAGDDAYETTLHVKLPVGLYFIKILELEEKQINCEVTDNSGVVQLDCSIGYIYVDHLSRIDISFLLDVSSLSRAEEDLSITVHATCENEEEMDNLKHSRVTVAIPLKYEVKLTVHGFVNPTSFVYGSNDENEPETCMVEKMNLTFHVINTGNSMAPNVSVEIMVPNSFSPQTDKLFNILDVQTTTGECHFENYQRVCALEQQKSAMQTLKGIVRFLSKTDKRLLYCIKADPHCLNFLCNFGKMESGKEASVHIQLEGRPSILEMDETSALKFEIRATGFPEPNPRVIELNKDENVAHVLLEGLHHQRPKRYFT", "sequence (P26010 20-723 limits assumed)": "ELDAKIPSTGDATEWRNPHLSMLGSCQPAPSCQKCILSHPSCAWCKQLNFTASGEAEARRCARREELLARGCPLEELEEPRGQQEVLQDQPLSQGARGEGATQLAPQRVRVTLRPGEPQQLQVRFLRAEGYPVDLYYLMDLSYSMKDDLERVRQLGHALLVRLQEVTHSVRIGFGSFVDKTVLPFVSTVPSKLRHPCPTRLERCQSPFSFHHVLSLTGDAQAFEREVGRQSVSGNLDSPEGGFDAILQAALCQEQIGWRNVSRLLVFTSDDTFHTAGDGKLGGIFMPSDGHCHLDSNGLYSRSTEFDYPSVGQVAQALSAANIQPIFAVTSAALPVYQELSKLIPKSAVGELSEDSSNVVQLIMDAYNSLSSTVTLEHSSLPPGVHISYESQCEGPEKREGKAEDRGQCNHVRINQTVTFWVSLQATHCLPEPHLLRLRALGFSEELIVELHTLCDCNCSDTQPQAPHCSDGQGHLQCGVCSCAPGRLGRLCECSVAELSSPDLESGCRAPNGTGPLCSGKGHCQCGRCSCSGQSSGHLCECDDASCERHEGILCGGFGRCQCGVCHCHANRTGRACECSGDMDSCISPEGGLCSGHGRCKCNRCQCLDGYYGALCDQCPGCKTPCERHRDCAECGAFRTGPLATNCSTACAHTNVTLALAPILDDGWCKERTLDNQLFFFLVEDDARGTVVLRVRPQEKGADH", "assay": "Schild analysis, MAdCAM binding to immobilized α4β7 integrin by ELISA", "details": "global-fit Schild analysis", "procedure": "Schild analysis was used to determine if Peptide X blocked MAdCAM binding to α4β7 integrin by a simple competitive mechanism. […] Based on the dose-response shifts, global-fit Schild analysis was used to determine the Schild slope and equilibrium dissociation constant (KB). The slope was ˜1, which indicated the inhibition is orthosteric antagonism with respect to MAdCAM, and not allosteric antagonism. […] The estimated KB value was 1 nM, which was similar to other Peptide X potency values in different assays."}, "[3]": {"system": "αEβ7 integrin", "assay": "FACS binding in cynomolgus monkey blood (α4β7 / αEβ7 expressing cells)", "format": "cell-based", "details": "cynomolgus monkey blood", "procedure": "Blood from cynomolgus monkeys was also analyzed by FACS.\nBinding to αEβ7 integrin in cyno blood was also tested. Cyno blood was incubated with 1 nM Peptide X-Alexa 647, and cells expressing α4β7 or αEβ7 were analyzed by FACS. […] Binding to α4β7 was specific, because it could be blocked in the presence of a large excess (1 uM) of unlabeled Peptide X. Therefore under these conditions, it was concluded that Peptide X binds α4β7, not αEβ7."}, "[4]": {"assay": "Tissue exposure after oral administration, 8 days", "format": "in vivo", "details": "cynomolgus monkey; for level at time molar at 4 h: 4 hours after the last dose", "procedure": "To determine tissue exposure following oral administration of Peptide X, Cynomolgus monkeys were dosed with Peptide X PO QD for 8 days at 12.5 mg/kg, 25 mg/kg or 75 mg/kg. The vehicle was 50 mM phosphate buffer, pH 7. Oral bioavailability in cyno (% F) was about 0.3%. Samples were collected 4 hours after the last dose."}, "[5]": {"target": "αLβ2 (Homo sapiens, UniProt P05107+P20701)", "assay": "IC50 for αLβ2 (assay not further described)", "procedure": "Biochemical competition ELISA assays were performed for α4β7 and α4β1 integrins. The ELISA assay for α4β7 is based on binding of MAdCAM-1 to immobilized α4β7, whereas the α4β1 ELISA relies on binding of soluble α4β1 to immobilized VCAM-1. These assays are described in Example 2. Under 1 mM Mg^2+ binding conditions, the IC50 for Peptide X was 3 nM and >10,000 nM for α4β7 and α4β1, respectively. In addition, the IC50 for Peptide X was >100 uM for both α4β1 and αLβ2. The IC50 of Peptide X for α4β7 T cells was 1 nM."}, "[6]": {"assay": "PK studies in normal or DSS treated mice and rats, oral dosing", "format": "in vivo"}, "[7]": {"assay": "FIG. 5", "source_text": "Table printed on a drawing sheet, FIG. 5\nFootnotes: SIF- simulated intestinal fluid (porcine) / RIW- rat intestinal wash / HIF- human intestinal fluid / CW- colonic wash (rat) / IMH- intestinal mucosal homogenate (rat) / CMG- colonic mucosal homogenate (rat) / SGF- simulated gastric fluid (porcine) / Hu S9- human intestinal S9 fraction / RL S9- rat liver S9\nFirst reader's note: The first column is printed empty in all rows, so no substance name appears on the sheet; the column head reads CMH while the legend prints CMG."}},
  "note": "Read-outs that look alike come from different tables or passages of the source. Numbered stars: 1 amine (or outer) side, 2 acyl side, 3 side chain; on linkers, the order of the positions; unused ones are H or OH. Bridge positions count the residues as written; N and C are the ends. Square brackets hold non-standard residues; d marks the D form. Peptide text beside a SMILES is read from it. I, II: the chains in the order shown. ξ: configuration not given here. Phe(4-tBu) = CC(C)(C)c1ccc(C[C@H](N)C(=O)O)cc1; Diglycolyl = O=C(COCC(=O)[*:2])[*:1]; NMeR = CN[C@@H](CCCNC(=N)N)C(=O)O; β3hE = N[C@@H](CCC(=O)O)CC(=O)O; Thr(3ξ) = CC(O)[C@H](N)C(=O)O; Pen = CC(C)(S)[C@H](N)C(=O)O",
  "data": [
    {"molecule": "CC(=O)N[C@@H]1C(=O)N(C)[C@@H](CCCNC(=N)N)C(=O)N[C@@H](CO)C(=O)N[C@@H](CC(=O)O)C(=O)N[C@@H](C(C)O)C(=O)N[C@@H](CC(C)C)C(=O)N[C@H](C(=O)N[C@@H](Cc2ccc(C(C)(C)C)cc2)C(=O)N[C@@H](CCC(=O)O)CC(=O)N[C@H](CCCCNC(=O)COCC(=O)NCCCC[C@@H](NC(=O)C[C@H](CCC(=O)O)NC(=O)[C@H](Cc2ccc(C(C)(C)C)cc2)NC(=O)[C@H]2NC(=O)[C@H](CC(C)C)NC(=O)[C@H](C(C)O)NC(=O)[C@H](CC(=O)O)NC(=O)[C@H](CO)NC(=O)[C@H](CCCNC(=N)N)N(C)C(=O)[C@@H](NC(C)=O)C(C)(C)SSC2(C)C)C(N)=O)C(N)=O)C(C)(C)SSC1(C)C", "note": "(stereo partly drawn) [Peptide X, [Ac-Pen-(N-Me-Arg)-Ser-Asp-Thr-Leu-Pen-(Phe(4-tBu))-(β-homoGlu)-(D-Lys)]2-DIG] (I: Ac-[Pen][NMeR]SD[Thr(3ξ)]L[Pen][Phe(4-tBu)][β3hE][dK]-NH2 / II: Ac-[Pen][NMeR]SD[Thr(3ξ)]L[Pen][Phe(4-tBu)][β3hE][dK]-NH2; disulfide I:1-I:7, II:1-II:7; linker I:10-II:10 via Diglycolyl)", "values": [
      {"measurement": "IC50", "setting": "[1]", "value": "> 100000", "unit": "nM"},
      {"measurement": "Schild slope", "setting": "[2]", "value": "~1"},
      {"measurement": "Kb", "setting": "[2]; estimated, read-out: equilibrium dissociation constant (KB)", "value": 0.001, "unit": "µM"},
      {"measurement": "binding site on α4β7 relative to vedolizumab", "setting": "[3]", "value": "binds to a site on α4β7 that is distinct from the binding site for vedolizumab"},
      {"measurement": "level at time molar at 4 h", "setting": "[4]; colon, 12.5 mg/kg PO QD 8 days, read-out: Peptide X exposure, Colon", "value": 4.16, "unit": "µM"},
      {"measurement": "level at time molar at 4 h", "setting": "[4]; colon, 25 mg/kg PO QD 8 days, read-out: Peptide X exposure, Colon", "value": 1.55, "unit": "µM"},
      {"measurement": "level at time molar at 4 h", "setting": "[4]; colon, 75 mg/kg PO QD 8 days, read-out: Peptide X exposure, Colon", "value": 15.5, "unit": "µM"},
      {"measurement": "bioavailability", "setting": "[4]; in vivo, oral, read-out: Oral bioavailability in cyno (% F)", "value": "~0.3", "unit": "%"},
      {"measurement": "level at time molar at 4 h", "setting": "[4]; mesenteric lymph node, 12.5 mg/kg PO QD 8 days, read-out: Peptide X exposure, Mesenteric Lymph Node", "value": 1.5, "unit": "µM"},
      {"measurement": "level at time molar at 4 h", "setting": "[4]; mesenteric lymph node, 25 mg/kg PO QD 8 days, read-out: Peptide X exposure, Mesenteric Lymph Node", "value": 0.138, "unit": "µM"},
      {"measurement": "level at time molar at 4 h", "setting": "[4]; mesenteric lymph node, 75 mg/kg PO QD 8 days, read-out: Peptide X exposure, Mesenteric Lymph Node", "value": 1.98, "unit": "µM"},
      {"measurement": "level at time molar at 4 h", "setting": "[4]; plasma, 12.5 mg/kg PO QD 8 days, read-out: Peptide X exposure, Plasma", "value": 0.002, "unit": "µM"},
      {"measurement": "level at time molar at 4 h", "setting": "[4]; plasma, 25 mg/kg PO QD 8 days, read-out: Peptide X exposure, Plasma", "value": 0.005, "unit": "µM"},
      {"measurement": "level at time molar at 4 h", "setting": "[4]; plasma, 75 mg/kg PO QD 8 days, read-out: Peptide X exposure, Plasma", "value": 0.021, "unit": "µM"},
      {"measurement": "level at time molar at 4 h", "setting": "[4]; small intestine, 12.5 mg/kg PO QD 8 days, read-out: Peptide X exposure, Small Intestine", "value": 0.661, "unit": "µM"},
      {"measurement": "level at time molar at 4 h", "setting": "[4]; small intestine, 25 mg/kg PO QD 8 days, read-out: Peptide X exposure, Small Intestine", "value": 0.293, "unit": "µM"},
      {"measurement": "level at time molar at 4 h", "setting": "[4]; small intestine, 75 mg/kg PO QD 8 days, read-out: Peptide X exposure, Small Intestine", "value": 7.84, "unit": "µM"},
      {"measurement": "IC50", "setting": "[5]", "value": "> 100", "unit": "µM"},
      {"measurement": "levels in the blood and urine after oral dosing", "setting": "[6]", "value": "no significant measurable levels in the blood and urine"},
      {"measurement": "Intestinal half-life | CMH", "setting": "[7]", "value": ">6", "unit": "h"},
      {"measurement": "Intestinal half-life | CW", "setting": "[7]", "value": ">6", "unit": "h"},
      {"measurement": "Intestinal half-life | HIF", "setting": "[7]", "value": ">24", "unit": "h"},
      {"measurement": "Intestinal half-life | IMH", "setting": "[7]", "value": ">6", "unit": "h"},
      {"measurement": "Intestinal half-life | SIF", "setting": "[7]", "value": 11, "unit": "h"},
      {"measurement": "Metabolism | Hu S9", "setting": "[7]", "value": ">6", "unit": "h"},
      {"measurement": "Metabolism | RL S9", "setting": "[7]", "value": ">6", "unit": "h"}
    ]}
  ]
}
